Test results from PMC9841576, “Characterisation of C101248: A novel selective THIK-1 channel inhibitor for the modulation of microglial NLRP3-inflammasome” (Neuropharmacology, 2023).

Tests used:
[1] = system: NLRP3-dependent release of IL-1β; experiment: IL-1β release from LPS-primed neonatal microglia exposed to K+-free buffer; assay type: cell-based, mouse
Protocol: In brief, brains were dissected by removing meninges, cerebellum, and olfactory bulbs before tissue was finely minced with a scalpel then digested with papain solution for 20 min at 37 °C. Tissue was dissociated and the resulting cell suspension was passed through a 40 μm cell strainer (Greiner Bio-One). Cells were centrifuged at 300 g for 5 min then resuspended in culture medium (DMEM, 10% FBS, 1% PenStrep) and plated in T75 collagen-coated flasks (Greiner Bio-One). A full medium change was caried out on day 2 while a half medium was changed on day 5 in the presence of 5 ng/ml of mouse GM-CSF (R&D Systems). Microglia were shaken off between day 9 and 11 and plated onto poly-D-lysine coated 96-well plates (μclear, Greiner Bio-One) at a density of 20,000 cells/well.
(§1) IL-1β from culture supernatants was measured with DuoSet ELISA kit (R&D Systems) following the manufacturer instructions.

TREK-1 = molecular target: T1, TREK-1 (Homo sapiens, UniProt O95069); experiment: FLIPR thallium influx assay, HEK-hTREK-1 cells; assay type: cell-based; settings: HEK-hTREK-1, at 30 μM, compared to TPA controls; read-out: inhibition of constitutive activity
T1 construct: expressed in transfected cells
T1 sequence (O95069 whole entry): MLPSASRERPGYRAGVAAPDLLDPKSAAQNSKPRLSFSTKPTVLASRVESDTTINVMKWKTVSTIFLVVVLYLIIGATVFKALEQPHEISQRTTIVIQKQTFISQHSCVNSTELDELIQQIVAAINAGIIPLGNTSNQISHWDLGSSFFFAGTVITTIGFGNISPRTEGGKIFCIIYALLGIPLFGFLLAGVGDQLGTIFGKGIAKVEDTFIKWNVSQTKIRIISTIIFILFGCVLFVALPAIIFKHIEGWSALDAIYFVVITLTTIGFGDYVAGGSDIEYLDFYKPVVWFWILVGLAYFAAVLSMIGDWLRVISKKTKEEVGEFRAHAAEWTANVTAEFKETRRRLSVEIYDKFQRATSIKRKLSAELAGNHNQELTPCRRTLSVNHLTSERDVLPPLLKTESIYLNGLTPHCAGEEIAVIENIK
Protocol: HEK-293 cells were transfected with human THIK-1, TREK-1, TWIK-2, or mouse THIK-1 cDNA cloned into pcDNA3.1, using either Fugene HD transfection reagent (Promega) or electroporation (MaxCyte STX instrument). Cells stably expressing the relevant genes were selected based on resistance to 500 μg/ml geneticin (Gibco). For human THIK-1 and TWIK-2 expressing cells, monoclonal lines were isolated by limited dilution cloning; mouse THIK-1 and human TREK-1 expressing cells were maintained as polyclonal pools. The HEK-293 pools and monoclones stably expressing the relevant genes were maintained in DMEM (Life Technologies), supplemented with 10% FCIII (HyClone, Fetal clone III) and 500 μg/ml geneticin. A CHO-Kv2.1 cell line was purchased from Millipore (accession NM_004975) and maintained in F12 (Life Technologies), supplemented with 10% FCSIII (Thermo Scientific) and 500 μg/ml geneticin (Life Technologies). […]
A fluorescence-based thallium influx assay (Molecular Devices potassium assay kit) was used to monitor channel activity. […] Using a fluorescent imaging plate reader (FLIPR) tetra plate reader, 15 μl thallium stimulus solution was added to the cell plate and the fluorescence signal recorded every second for 1 min (excitation: 470–495 nm, emission: 515–575 nm).

[2] = system: NLRP3-dependent release of IL-1β; experiment: LPS/ATP-induced IL-1β release from adult microglia; assay type: cell-based, mouse; settings: 0.1 and 1 μM
Protocol: Microglia were isolated from C57BL/6 male and female mice aged 6–10 weeks (Charles River, UK) as previously described ([Drinkall et al., 2022]). In brief, brains were isolated, minced, and digested using a Neural Tissue Dissociation Kit (Miltenyi Biotec Ltd., UK) according to manufacturer's instructions. The resulting suspension was dissociated using a Dounce tissue grinder (Sigma). Myelin was removed by centrifuging cell suspension in 33% Percoll (GE Healthcare) for 10 min at 1000 g with low break and aspiration of myelin layer. Cells were pelleted by diluting 1:4 in Ca^2+/Mg^2+ free Hank's balanced salt solution (CMF-HBSS, Gibco) and centrifuged for 10 min at 500 g. […] The eluted microglia were counted and plated onto 96-well Cell + plates (Sarstedt) at a density of 30,000 cells per well in culture medium (DMEM/F12, 10% FBS, 1% PenStrep, 2 mM glutamine, 20 ng/ml IL-34 (R&D Systems), and 50 ng/ml transforming growth factors-β1 (Miltenyi Biotec Ltd., UK)). […]
as §1

- IC50 ([1]; Mus musculus, wild-type neonatal microglia, LPS-primed, K+-free buffer, read-out: IC50, inhibition of IL-1β release): 106 nM
- inhibition at 30 µM (TREK-1): 18%
SMILES: Nc1nonc1-c1nc2ccccc2n1Cc1ccncc1 [C101248]
- reduction of IL-1β release ([1]; 10 μM, wild type neonatal microglia, K+-free buffer): ~55%
- effect on K+-free buffer-induced release of IL-1β in THIK-1 KO microglia ([1]; THIK-1 KO neonatal microglia, 10 μM): no impact
- effect on LPS/ATP-induced IL-1β release [2]: significantly attenuated
